In patent publication US8535740B2, “Compositions from Nigella sativa” (priority 2002, dated 2013):
In brackets after ≈: the same amount, converted by molar mass.

Assays:
[1] = system: iNOS-mediated NO biosynthesis in C2C12 myocytes; test: LTI cytokine-stimulated NO biosynthesis in C2C12 myocytes; format: cell-based, murine; conditions: Mus musculus, value computed on the basis of TQ content, LPS/TNFα/IFγ stimulation 20 hours, (95% confidence interval), read-out: Median Inhibitory Concentration for iNOS-mediated NO biosynthesis, C2C12 Myocytes
Method: Mouse C2C12 myoblasts (American Type Culture Collection, Manassas, Va.) were maintained in Dulbecco's modified Eagle's medium (DMEM) supplemented with 10% fetal calf serum (FCS), 50 units/ml penicillin and 50 μg/ml streptomycin. As cells reached confluence, the medium was switched to the differentiation medium containing DMEM and 2% horse serum. Medium was changed every other day. […] At the end of the treatment period, media were sampled for determination of NO. […] Determination of nitrite in waters by microplate fluorescence spectroscopy and HPLC with fluorescence detection. Anal Chem. Aug. 1 1999; 71(15):3003-3007). In a separate, black-walled, 96-well, microtiter plate, a 7 μL aliquot of a 4.8×10^-4 mol NBDM/L solution was added to 200 μL of the supernatant media followed by the addition of 15 μL of concentrated phosphoric acid. After a reaction time of 30 minutes at ambient temperature, the fluorescence was read with 485 nm excitation filter and a 530 nm emission filter in a Packard Fluorocount spectrofluorometer (Model #BF10000, Meridan, Conn.). […] Quantitative analysis of dose-effect relationships: the combined effects of multiple drugs or enzyme inhibitors.

C2C12 myocytes = test: Lipolysis (glycerol / free fatty acid release) in C2C12 myocytes; format: cell-based, murine; conditions: test materials 5 or 2.5 μg/mL (FIG. 10)
Method: Cell culture and treatment-Culture and treatment of 3T3-L1 adipocytes and C2C12 myocytes was as described in Example 5. Concentrations of the forskolin positive control and test materials are listed in FIG. 9 for adipocytes and FIG. 10 for myocytes. Glycerol assay-Free fatty acid release from 3T3-L1 adipocytes or C2C12 myocytes was quantified by measuring glycerol secretion into the medium. Glycerol was measured spectrophotometrically using the Free Glycerol Determination Kit ([…], Sigma) and an EL 312e Microplate BIO-KINETICS spectrophotometer (BioTek, Winooski, Vt.). Data analysis-Glycerol release from adipocytes and myocytes was expressed, respectively, as the percent increase in free fatty acid secretion (FIG. 9) and relative glycerol content (glycerol index FIG. 10) ±95% confidence intervals of eight observations for one of three representative experiments.

Caco-2 monolayers = test: LPS/H2O2-mediated loss of transepithelial electrical resistance in Caco-2 monolayers; format: cell-based, human
Source text: Caco-2 Cells—The protocol for growing and differentiation the human Caco-2 colon andenocarcinoma cells was a modification of Protocol 3 as described by Yamashita et al. [Yamashita, S., Konishi, K., Yamazaki, Y., Taki, Y., Sakane, T., Sezaki, H., and Furuyama, Y. (2002) New and better protocols for a short-term Caco-2 cell culture system, J Pharm Sci 91, 669-679]. Caco-2 Human Colon Adenocarcinoma cells were obtained from ATCC (Rockville, Md.; catalog #HTB-37) and maintained in a growth media: DMEM (Dulbecco's Modified Eagles Medium 1×) containing L-glutamine, glucose; Cellgro catalog #35-010CV with the following additions: (1) Penicillin (5,000 IU/mL)/Streptomycin (5,000 μg/mL) Cellgro catalog #30-001C1, (2) 10% FBS—Fetal Bovine Serum, Characterized; Hyclone catalog #SH30071.3, and (3) 1% NEAA—Non Essential Amino Acids; Cellgro catalog #25-025-CI; cells were cultured at 37 C in a humidified air-5% CO2 atmosphere in T175 flasks.
Differentiation of Caco-2 cells to intestinal epithelial cells—BIOCOAT^R HTS Caco-2 Assay System kits (Becton Dickinson, N.J.; catalog #354801) consisting of 24-well fibrillar collagen coated inserts and feeder trays were used in all experiments and plated as follows. Media was removed from the T175 flasks and cells were washed with 10 mLs PBS (phosphate buffered saline 1× without Ca^++, without Mg^++; Cellgro #25-053-CI). […]

SMILES: CC1=CC(=O)C(C(C)C)=CC1=O [Thymoquinone (Sigma), thymoquinone]
- IC50 [1]: 1.9 µg/mL (≈ 11.6 µM)
- free fatty acid release in myocytes (C2C12 myocytes): induced free fatty acid release
- Relative Loss of TEER (Caco-2 monolayers; 10 uM H2O2 + 50 μg/mL LPS, three hours, positive control set to 100, each material at its tabulated concentration (TQ 5.0, NS8 0.11, NS9 0.99, NS10 0.012, NSSpent#2 0.0005 μg TQ equivalents/mL; Spent#1 5 μg/mL)): 111
- effect on LPS/H2O2-mediated loss of TEER (Caco-2 monolayers; concentrations of Table 6): no effect
